In patent publication US10588982B2, “Site-specific covalent chemical ligation to monoclonal and polyclonal immunoglobulin” (The Regents of the University of California, priority 2015, dated 2020):

Tests used:
trastuzumab = assay: Confirmation screen on TentaGel beads, crosslinked trastuzumab detected with anti-human IgG Cy3; details: DNFB reacted with methylamine or methylpypridine prior to staining
Text: Approximately 100,000 library beads were immobilized onto 30 mm polystyrene dishes by using a series of 90% DMF washes. Beads were then washed and swelled in PBS. Nonspecific binding was inhibited with blocking buffer (0.1% BSA, 0.1% Tween, and 0.05% sodium azide) for one hour in room temperature. […] Excess antibody was removed, and beads were gently washed with PBS. To facilitate crosslinking of DNDFB to the antibody of the peptide library, we raised the pH to 8.5 for one hour. After crosslinking, beads were washed sequentially with PBS, 1.00 mM pH 3 glycine, and then pH 8 TBS. Anti-human IgG-alkaline phosphatase conjugate was then added at 1:1000 dilution. After washing, beads were then developed using BCIP (5-bromo-4-chloro-3′-indolyphosphate p-toluidine salt) solution. (NBT (nitro-blue tetrazolium chloride) was not used due to high background staining with TentaGel library beads.) Using a dissecting microscope, plates were imaged and positive beads were isolated. The isolated beads were then treated with 8M guanidine/HCl to remove all non-covalently linked proteins. The beads were further washed with PBS and water. […]
In the confirmation studies, hits were synthesized on TentaGel. Staining steps were the same except 1:30 anti-human IgG conjugated to Cy3 was used to allow for fluorescence quantification. […] Bead intensity was measured and quantified using Image J. […]

SKOV3 = assay: In vitro T cell killing assay by flow cytometry; type: cell-based; details: with activated T cells
Method: FIG. 30. Depicts results of an in vitro T cell killing assay monitored and quantified by flow cytometry.
In vitro cytotoxicity assays were performed to analyze the effect of the NMDS-LYX30 bi-functional immunoconjugate on T cell targeting of an α3β1 integrin expressing target cell. Target cells (SKOV3) were labeled with GFP. The labeled target cells were plated in 6-well plates at 30000 cells per well and allowed to adhere overnight at 37° C. in a humidified atmosphere of 5% CO2. PBMCs were isolated from healthy volunteer donor and activated with anti-CD3, anti-CD28 (1 ug/ml) for 72 hours prior to co-incubation with target cells. The activated PBMCs were co-cultured with target cells at E:T=10:1 ratio for 12 hours at 37° C. in a humidified atmosphere of 5% CO2 with or without 100 ng/ml immunoconjugates contained medium. At the end of the incubation, the cells were lifted by trypsin and collected from the plate. The cells were resuspended in equal volume of PBS containing 2% FBS, 1 mmol/L EDTA, Propidium iodine (PI) and Annexin V-APC for 15 minutes. The fluorescent intensity of GFP, PI and APC were recorded by a FACs machine. 10000 events of target cells were recorded by gating GFP positive channel. The percentage of live/dead cells was calculated by the different cell population containing different amount of annexin V or PI. […] The results are depicted in FIG. 30.

indole-butyrate-Lys(DNFB)-Asp-Ser linker [DS affinity element]
decrease in fluorescent intensity (trastuzumab): 50%

nivolumab: anti-PD-1 checkpoint inhibitor antibody
target cell killing (SKOV3): increased target cell killing
